The record followed here is ChEMBL document CHEMBL4418488, “Compounds and methods of treating ocular disorders” (2017).

Data set [1] relates to Mus musculus. Put plainly: Protective effect against intense light-induced retinal degeneration in 4 weeks old Abca4(-/-)/Rdh8 (-/-) mouse assessed as effect on thickness of outer nuclear layer at 1 mg dosed via gavage under dark for 24 hrs before exposure to 10000 lux bright light for 1 hr by SDOCT and ERG analysis. Type of data set: functional, organism-based.
Data set [2] in a line: Toxicity in 4 weeks old Abca4(-/-)/Rdh8 (-/-) mouse model of intense light-induced retinal degeneration at 1 mg dosed via gavage under dark for 24 hrs before exposure to 10000 lux bright light for 1 hr by SDOCT and ERG analysis. Format: organism-based. The conditions noted are these: in vivo, po.
A short description of data set [3]: Drug metabolism in 4 weeks old Abca4(-/-)/Rdh8 (-/-) mouse model of intense light-induced retinal degeneration assessed as accumulation of intense amide peaks in liver at 1 mg dosed via gavage under dark for 24 hrs before exposure to 10000 lux bright light for 1 hr […]. Format: ADME, organism-based. The conditions noted are these: in vivo, po.

Data set [4] relates to Mus musculus. Put plainly: Protective effect against intense light-induced retinal degeneration in 4 weeks old Abca4(-/-)/Rdh8 (-/-) mouse assessed as 11-cis retinal levels at 1 mg dosed via gavage under dark for 24 hrs before exposure to 10000 lux bright light for 1 hr by HPLC analysis. Format: functional.
Data set [5] relates to Mus musculus. Put plainly: Protective effect against intense light-induced retinal degeneration in wild type mouse assessed as rate of visual chromophore recovery by measuring 11-cis- retinal level in eye at 0.2 mg pretreated with compound followed by exposure to light illumination 7 days after compound dosing (reference value: 85 +/- 5%) by HPLC analysis. Format: functional, organism-based.

Data set [6] has as its system Mus musculus. Put plainly: Protective effect against intense light-induced retinal degeneration in 4 weeks old Abca4(-/-)/Rdh8 (-/-) mouse assessed as inhibition of rate of visual chromophore recovery by measuring 11-cis- retinal level in eye at 0.1 mg dosed via gavage under dark for 24 hrs before exposure to 10000 lux bright light for 1 hr by HPLC analysis relative to control. Type of data set: functional.

In data set [7] the test system is Mus musculus. Put plainly: Protective effect against intense light-induced retinal degeneration in 4 weeks old Abca4(-/-)/Rdh8 (-/-) mouse at 0.1 mg dosed via gavage under dark for 24 hrs before exposure to 10000 lux bright light for 1 hr followed by exposure to dark for 3 days by OCT analysis. Format: functional, organism-based.
The test system of data set [8] is Mus musculus. Put plainly: Protective effect against intense light-induced retinal degeneration in 4 weeks old Abca4(-/-)/Rdh8 (-/-) mouse at 0.2 mg dosed via gavage under dark for 24 hrs before exposure to 10000 lux bright light for 1 hr followed by exposure to dark for 3 days by ERG analysis. Type of data set: functional, organism-based.
The test system of data set [9] is Mus musculus. Put plainly: Protective effect against intense light-induced retinal degeneration in 4 weeks old Abca4(-/-)/Rdh8 (-/-) mouse at 0.5 mg dosed via gavage under dark for 24 hrs before exposure to 10000 lux bright light for 1 hr followed by exposure to dark for 3 days by ERG analysis. Type of data set: functional, organism-based.
Data set [10] relates to Mus musculus. Put plainly: Protective effect against intense light-induced retinal degeneration in 4 weeks old Abca4(-/-)/Rdh8 (-/-) mouse at 0.1 mg dosed via gavage under dark for 24 hrs before exposure to 10000 lux bright light for 1 hr followed by exposure to dark for 3 days by ERG analysis. Format: functional, organism-based.

Activity calls are given as the source filed them. No cut-off for these calls is given here.

Take `CC(/C=C/C=C(/C=C/C1=CCCCC1)C(C)(C)C)=C\CN`: the outcome in data set [1] was Active. For the same molecule, the Activity result was “Toxic” in data set [2] and 50% in [4]. Besides, the Drug metabolism result in data set [3] is “Metabolite_Detected”.
On to `CC1=C(/C=C/C(C)=C/C=C/C(C)=C/CN)C(C)(C)CCC1`, for which the result in [1], in data set [8] and in [9] was Active. Moreover, the Activity result in [2] was “Non-Toxic”. The result in data set [5], in [7] and in data set [10] was inactive. For the same molecule, the “inhibition (INH)” value in data set [6] is 40%.
`CC1=C(/C=C/C(=C/C=C/C(C)=C/CN)C(C)(C)C)C(C)(C)CCC1`: the result in [1] was inactive. For the same molecule, in [2], the Activity entry is listed as “Non-Toxic”.
In the case of `CC(/C=C/C=C(/C=C/c1ccccc1)C(C)(C)C)=C\CN`, the result in data set [1] was Active. Besides, the Activity entry in data set [2] is recorded as “Toxic”. Also, in data set [3], the Drug metabolism result is given as “Metabolite_Detected”.
Consider `CC(C)(C)C(=C\C=C\CN)/C=C/C1=CCCCC1`, for which the result in data set [1] was inactive. For the same molecule, in data set [2], the Activity entry is “Toxic”.
Take `CC1=C(/C=C/C(=C/C=C/C(C)=C/CN)C(C)(C)C)CCCC1`: in data set [1], the outcome was inactive. Moreover, in data set [2], the Activity result is listed as “Non-Toxic”.
Turning to `CC(/C=C/C=C(/C=C/c1ccc(C(F)(F)F)cc1)c1ccccc1)=C\CN`, in data set [1], the result was inactive. Also, the Activity result in [2] is given as “Toxic”.
On the same counts, the results for `CC1=C(/C=C/C=C/C=C/C=C/CN)C(C)(C)CCC1` are “Active” and “Non-Toxic”.
The like results for `CC(/C=C/C1=CCCCC1)=C\C=C\C(C)=C\CN` were, in that order, “inactive” and “Non-Toxic”.
On the same counts, the results for `COc1ccc(C(=C\C=C\C(C)=C\CN)/C=C/c2ccc(O)cc2)cc1` are “inactive” and “Non-Toxic”.
On to `CC(/C=C/C=C(/c1ccc2ccccc2c1)C(C)(C)C)=C\CN`, for which, in data set [1], the outcome was Active. Besides, the Activity entry in data set [2] is “Toxic”; in [4], 50%. In data set [3], the Drug metabolism result is recorded as “Metabolite_Detected”.
Regarding `COc1ccc(C(=C\C=C\C(C)=C\CN)/C=C/C2=CCCCC2)cc1`, the result in data set [1] was inactive. In addition, in data set [2], the Activity result was “Non-Toxic”.
